Source: US20260193293A1, “PEPTIDES CAPABLE OF INHIBITING PROTEIN-PROTEIN INTERACTIONS AT GABAB1A SUBUNIT AND USES THEREOF” (UNIVERSITY OF COPENHAGEN, priority 2022, published 2026)
Like-named read-outs stand apart in the source and are kept apart here. Blank lines part the entries; values can stand above or below the compound they belong to. Non-standard residues stand in square brackets, D forms with d. Residues, ends and D or L forms follow the SMILES beside them. Sar = CNCC(=O)O

Molecular target: Sushi domains (SD1/2) protein
Assay: Fluorescence polarization (FP) competition assay with AJAP-1probe, calculated Ki
Type: binding
Description: Fluorescence polarization (FP). FP assay was employed to determine the binding affinity of peptides in flat bottom black 384-well plates (Corning Life Science) using a Safire2 plate reader (Tecan). All experiments were conducted in 1×PBS (pH 7.4) containing 1% bovine serum albumin (BSA) at rt. The fluorescence polarization values were measured using excitation/emission wavelengths of 530/580 nm. The instrumental Z-factor was adjusted to obtain the maximum fluorescence intensity and the G-factor was calibrated to give an initial millipolarization value of 20 mP. All FP assays including saturation or competition experiments were performed using 25 nM of TAMRA labeled peptides as probes. For saturation assay, the millipolarization values were measured after mixing of probes with 12 serial 1 to 1 diluted concentrations of Sushi domains (SD1/2) protein. All experiments were performed in triplicate and the data were plotted to the one-site binding model using GraphPad Prism 9 to calculate the Kd of probes. […] The experiments were performed at least in triplicate and the data were fitted to the sigmoidal dose response curve using GraphPad Prism 9 to obtain the IC50 of peptides. The Ki values were calculated according to Nikolovska-Coleska et al^310.

[1] = Table 6, elongation and truncation scan of PIANP binding epitope, read-out: Ki (nM) mean ± SEM
[2] = Table 5, elongation and truncation scan of AJAP-1 binding epitope, read-out: Ki (nM) mean ± SEM
[3] = Table 13, peptides for affinity maturation, read-out: Ki (nM) mean ± SEM
[4] = Table 10, deep mutational scanning validation variants of APPWT, read-out: Ki (nM) mean ± SEM
[5] = Table 11, deep mutational scanning validation variants of AJAP-1WT, read-out: Ki (nM) mean ± SEM

Ki [1]: 29900 ± 2000 nM
Compound: CC[C@H](C)[C@H](NC(=O)[C@H](C)NC(=O)[C@H](Cc1c[nH]c2ccccc12)NC(=O)[C@@H]1CCCN1C(=O)[C@H](Cc1ccc(O)cc1)NC(=O)[C@H](CCC(N)=O)NC(=O)[C@H](CO)NC(=O)[C@H](CO)NC(C)=O)C(=O)N[C@H](C(=O)N[C@@H](Cc1c[nH]c2ccccc12)C(=O)NCC(=O)N1CCC[C@H]1C(=O)N[C@H](C(=O)N[C@H](C(=O)N[C@@H](CO)C(=O)N[C@@H](CCCNC(=N)N)C(=O)N[C@@H](CCC(=O)O)C(=O)N[C@@H](CC(=O)O)C(=O)NCC(N)=O)C(C)C)[C@@H](C)O)C(C)C (Ac-SSQYPWAIVWGPTVSREDG-NH2)

Ki (CPP tagged peptides overview, SD1/2 binding affinity, mean ± SEM, n ≥ 3, read-out: Ki): 65 ± 1 nM | Ki (Table 14, CPPs tagged peptides, read-out: Ki (nM) mean ± SEM): 65.3 ± 1 nM
Compound: CC[C@H](C)[C@H](NC(=O)[C@H](Cc1c[nH]c2ccccc12)NC(=O)[C@H](CC(=O)O)NC(=O)[C@H](CC(=O)O)NC(=O)[C@H](CC(=O)O)NC(=O)[C@H](CCC(=O)O)NC(C)=O)C(=O)N[C@@H](CC(=O)O)C(=O)N[C@@H](Cc1c[nH]c2ccccc12)C(=O)N[C@@H](Cc1ccc(O)cc1)C(=O)N[C@@H](CC(=O)O)C(=O)N[C@@H](CO)C(=O)N[C@@H](CC(=O)O)C(=O)N[C@@H](CC(=O)O)C(=O)N[C@@H](CC(=O)O)C(=O)N[C@@H](CCCNC(=N)N)C(=O)N[C@@H](CCCNC(=N)N)C(=O)N[C@@H](CCCNC(=N)N)C(=O)N[C@@H](CCCNC(=N)N)C(=O)N[C@@H](CCCNC(=N)N)C(=O)N[C@@H](CCCNC(=N)N)C(=O)N[C@@H](CCCNC(=N)N)C(=O)N[C@@H](CCCNC(=N)N)C(N)=O [Peptide 16-R8] (Ac-EDDDWIDWYDSDDDRRRRRRRR-NH2)

Ki (Table 8, in μM, read-out: Ki (nM) mean ± SEM): > 6250 nM
Compound: ETEFlaWGPTGDED (Ac-ETEFI[dA]WGPTGDED-NH2)

Ki [2]: 30 ± 0.5 nM
Compound: CC[C@H](C)[C@H](NC(=O)[C@H](Cc1ccccc1)NC(=O)[C@H](CCC(=O)O)NC(=O)[C@@H](NC(=O)[C@H](CCC(=O)O)NC(=O)[C@@H](NC(=O)[C@@H](NC(=O)[C@@H]1CCCN1C(C)=O)[C@@H](C)O)[C@@H](C)O)[C@@H](C)O)C(=O)N[C@@H](C)C(=O)N[C@@H](Cc1c[nH]c2ccccc12)C(=O)NCC(=O)N1CCC[C@H]1C(=O)N[C@H](C(=O)NCC(=O)N[C@@H](CC(=O)O)C(=O)N[C@@H](CCC(=O)O)C(=O)N[C@@H](CC(=O)O)C(N)=O)[C@@H](C)O (Ac-PTTETEFIAWGPTGDED-NH2)

Ki [3]: 36 ± 1 nM
Compound: CC(=O)N[C@@H](CCC(=O)O)C(=O)N[C@@H](CC(=O)O)C(=O)N[C@@H](CC(=O)O)C(=O)N[C@@H](CO)C(=O)N[C@@H](Cc1c[nH]c2ccccc12)C(=O)N[C@H](C(=O)N[C@@H](Cc1c[nH]c2ccccc12)C(=O)N[C@@H](Cc1c[nH]c2ccccc12)C(=O)NCC(=O)N(C)CC(=O)N[C@@H](C)C(=O)N[C@@H](CC(=O)O)C(=O)N[C@H](C(=O)N[C@@H](CC(=O)O)C(N)=O)[C@@H](C)O)C(C)C (Ac-EDDSWVWWG[Sar]ADTD-NH2)

Ki (Table 8, Ala-, D-amino acids and N-methylation scans of AJAP-1WT, read-out: Ki (nM) mean ± SEM): 34 ± 3 nM
Compound: CC[C@H](C)[C@H](NC(=O)[C@H](Cc1ccccc1)NC(=O)[C@H](CCC(=O)O)NC(=O)[C@H](C)NC(=O)[C@H](CCC(=O)O)NC(C)=O)C(=O)N[C@@H](C)C(=O)N[C@@H](Cc1c[nH]c2ccccc12)C(=O)NCC(=O)N1CCC[C@H]1C(=O)N[C@H](C(=O)NCC(=O)N[C@@H](CC(=O)O)C(=O)N[C@@H](CCC(=O)O)C(=O)N[C@@H](CC(=O)O)C(N)=O)[C@@H](C)O [EAEFIAWGPTGDED] (Ac-EAEFIAWGPTGDED-NH2)

Ki [4]: 346 ± 6 nM
Compound: CC(=O)N[C@@H](CCC(=O)O)C(=O)N[C@@H](CC(=O)O)C(=O)N[C@@H](CC(=O)O)C(=O)N[C@@H](CO)C(=O)N[C@@H](CC(=O)O)C(=O)N[C@H](C(=O)N[C@@H](Cc1c[nH]c2ccccc12)C(=O)N[C@@H](Cc1c[nH]c2ccccc12)C(=O)NCC(=O)NCC(=O)N[C@@H](Cc1c[nH]cn1)C(=O)N[C@@H](CC(=O)O)C(=O)N[C@H](C(=O)N[C@@H](CC(=O)O)C(N)=O)[C@@H](C)O)C(C)C (Ac-EDDSDVWWGGHDTD-NH2)

Ki (Table 1, affinity maturation, mean ± SEM, n ≥ 3, read-out: Ki): 11 ± 0.1 nM | Ki [3]: 11 ± 0.1 nM
Compound: CC[C@H](C)[C@H](NC(=O)[C@H](Cc1c[nH]c2ccccc12)NC(=O)[C@H](CO)NC(=O)[C@H](CC(=O)O)NC(=O)[C@H](CC(=O)O)NC(=O)[C@H](CCC(=O)O)NC(C)=O)C(=O)N[C@@H](CC(=O)O)C(=O)N[C@@H](Cc1c[nH]c2ccccc12)C(=O)N[C@@H](Cc1ccc(O)cc1)C(=O)NCC(=O)N[C@@H](C)C(=O)N[C@@H](CC(=O)O)C(=O)N[C@H](C(=O)N[C@@H](CC(=O)O)C(N)=O)[C@@H](C)O [Peptide 30] (Ac-EDDSWIDWYGADTD-NH2)

Ki [1]: 433 ± 2 nM
Compound: CC[C@H](C)[C@H](NC(=O)[C@H](C)NC(=O)[C@H](Cc1c[nH]c2ccccc12)NC(=O)[C@@H]1CCCN1C(=O)[C@H](Cc1ccc(O)cc1)NC(C)=O)C(=O)N[C@H](C(=O)N[C@@H](Cc1c[nH]c2ccccc12)C(=O)NCC(=O)N1CCC[C@H]1C(=O)N[C@H](C(=O)N[C@H](C(=O)N[C@@H](CO)C(=O)N[C@@H](CCCNC(=N)N)C(=O)N[C@@H](CCC(=O)O)C(=O)N[C@@H](CC(=O)O)C(=O)NCC(N)=O)C(C)C)[C@@H](C)O)C(C)C (Ac-YPWAIVWGPTVSREDG-NH2)

Ki [5]: 62 ± 3 nM
Compound: CC[C@H](C)[C@H](NC(=O)[C@H](Cc1ccccc1)NC(=O)[C@H](CCC(=O)O)NC(=O)[C@@H](NC(=O)[C@H](CC(N)=O)NC(C)=O)[C@@H](C)O)C(=O)N[C@@H](C)C(=O)N[C@@H](Cc1c[nH]c2ccccc12)C(=O)NCC(=O)N1CCC[C@H]1C(=O)N[C@H](C(=O)NCC(=O)N[C@@H](CC(=O)O)C(=O)N[C@@H](CCC(=O)O)C(=O)N[C@@H](CC(=O)O)C(N)=O)[C@@H](C)O [NTEFIAWGPTGDED] (Ac-NTEFIAWGPTGDED-NH2)

Ki [5]: 39 ± 1 nM
Compound: CC[C@H](C)[C@H](NC(=O)[C@H](Cc1ccccc1)NC(=O)[C@H](CCC(=O)O)NC(=O)[C@@H](NC(=O)[C@H](CCC(=O)O)NC(C)=O)[C@@H](C)O)C(=O)N[C@@H](C)C(=O)N[C@@H](Cc1c[nH]c2ccccc12)C(=O)NCC(=O)N1CCC[C@H]1C(=O)N[C@H](C(=O)NCC(=O)N[C@@H](CC(=O)O)C(=O)N[C@H](C(=O)N[C@@H](CC(=O)O)C(N)=O)C(C)C)[C@@H](C)O

Ki (Table 9, Ala-, D-amino acids and N-methylation scans of PIANPWT, read-out: Ki (nM) mean ± SEM): 525 ± 22 nM | Ki [3]: 525 ± 22 nM
Compound: CC[C@H](C)[C@H](NC(=O)[C@H](C)NC(=O)[C@H](Cc1c[nH]c2ccccc12)NC(=O)[C@@H]1CCCN1C(C)=O)C(=O)N[C@H](C(=O)N[C@@H](Cc1c[nH]c2ccccc12)C(=O)NCC(=O)N(C)CC(=O)N[C@H](C(=O)N[C@H](C(=O)N[C@@H](CO)C(=O)N[C@@H](CCCNC(=N)N)C(=O)N[C@@H](CCC(=O)O)C(=O)N[C@@H](CC(=O)O)C(N)=O)C(C)C)[C@@H](C)O)C(C)C [PWAIVWG(N-Me-G)TVSRED] (Ac-PWAIVWG[Sar]TVSRED-NH2)

Ki (Table 3, SPOT hit validation and previously reported peptides, read-out: Ki (nM) mean ± SEM): 637 ± 45 nM
Compound: CC[C@H](C)[C@H](NC(=O)[C@H](C)NC(C)=O)C(=O)N[C@H](C(=O)N[C@@H](Cc1c[nH]c2ccccc12)C(=O)NCC(=O)N1CCC[C@H]1C(=O)N[C@H](C(=O)N[C@H](C(=O)N[C@@H](CO)C(=O)N[C@@H](CCCNC(=N)N)C(=O)N[C@@H](CCC(=O)O)C(=O)N[C@@H](CC(=O)O)C(=O)NCC(=O)NCC(=O)N[C@@H](CC(=O)O)C(N)=O)C(C)C)[C@@H](C)O)C(C)C (Ac-AIVWGPTVSREDGGD-NH2)

Ki [2]: > 125000 nM
Compound: CC(=O)N[C@@H](C)C(=O)N[C@@H](Cc1c[nH]c2ccccc12)C(=O)NCC(=O)N1CCC[C@H]1C(=O)N[C@H](C(=O)NCC(=O)N[C@@H](CC(=O)O)C(=O)N[C@@H](CCC(=O)O)C(=O)N[C@@H](CC(=O)O)C(N)=O)[C@@H](C)O [AWGPTGDED] (Ac-AWGPTGDED-NH2)

Ki [2]: 97 ± 7 nM
Compound: CC[C@H](C)[C@H](NC(=O)[C@H](Cc1ccccc1)NC(=O)[C@H](CCC(=O)O)NC(=O)[C@@H](NC(=O)[C@H](CCC(=O)O)NC(=O)[C@@H](NC(C)=O)[C@@H](C)O)[C@@H](C)O)C(=O)N[C@@H](C)C(=O)N[C@@H](Cc1c[nH]c2ccccc12)C(=O)NCC(=O)N1CCC[C@H]1C(=O)N[C@H](C(=O)NCC(=O)N[C@@H](CC(=O)O)C(N)=O)[C@@H](C)O (Ac-TETEFIAWGPTGD-NH2)

Ki [4]: 191 ± 10 nM
Compound: CC(=O)N[C@@H](CCC(=O)O)C(=O)N[C@@H](CC(=O)O)C(=O)N[C@@H](CC(=O)O)C(=O)N[C@@H](CO)C(=O)N[C@@H](Cc1ccc(O)cc1)C(=O)N[C@H](C(=O)N[C@@H](Cc1c[nH]c2ccccc12)C(=O)N[C@@H](Cc1c[nH]c2ccccc12)C(=O)NCC(=O)NCC(=O)N[C@@H](C)C(=O)N[C@@H](CC(=O)O)C(=O)N[C@H](C(=O)N[C@@H](CC(=O)O)C(N)=O)[C@@H](C)O)C(C)C (Ac-EDDSYVWWGGADTD-NH2)

Ki (Table 4, truncation and elongation scans of APP epitope, read-out: Ki (nM) mean ± SEM): 299 ± 8 nM
Compound: CC(=O)N[C@@H](CCC(=O)O)C(=O)N[C@@H](CCC(=O)O)C(=O)N[C@@H](CC(=O)O)C(=O)N[C@@H](CC(=O)O)C(=O)N[C@@H](CO)C(=O)N[C@@H](CC(=O)O)C(=O)N[C@H](C(=O)N[C@@H](Cc1c[nH]c2ccccc12)C(=O)N[C@@H](Cc1c[nH]c2ccccc12)C(=O)NCC(=O)NCC(=O)N[C@@H](C)C(=O)N[C@@H](CC(=O)O)C(=O)N[C@H](C(=O)N[C@@H](CC(=O)O)C(=O)N[C@@H](Cc1ccc(O)cc1)C(=O)N[C@@H](C)C(N)=O)[C@@H](C)O)C(C)C (Ac-EEDDSDVWWGGADTDYA-NH2)
